Publication PMC12435270 (Proceedings of the National Academy of Sciences of the …, 2025)
Read-outs that look alike come from different tables or passages of the source.

Experiments:
[1] = target: T1, human creatine transporter (hCRT, SLC6A8) (Homo sapiens, UniProt P48029); test: cryo-EM structure; format: binding
T1 sequence (P48029 1-635): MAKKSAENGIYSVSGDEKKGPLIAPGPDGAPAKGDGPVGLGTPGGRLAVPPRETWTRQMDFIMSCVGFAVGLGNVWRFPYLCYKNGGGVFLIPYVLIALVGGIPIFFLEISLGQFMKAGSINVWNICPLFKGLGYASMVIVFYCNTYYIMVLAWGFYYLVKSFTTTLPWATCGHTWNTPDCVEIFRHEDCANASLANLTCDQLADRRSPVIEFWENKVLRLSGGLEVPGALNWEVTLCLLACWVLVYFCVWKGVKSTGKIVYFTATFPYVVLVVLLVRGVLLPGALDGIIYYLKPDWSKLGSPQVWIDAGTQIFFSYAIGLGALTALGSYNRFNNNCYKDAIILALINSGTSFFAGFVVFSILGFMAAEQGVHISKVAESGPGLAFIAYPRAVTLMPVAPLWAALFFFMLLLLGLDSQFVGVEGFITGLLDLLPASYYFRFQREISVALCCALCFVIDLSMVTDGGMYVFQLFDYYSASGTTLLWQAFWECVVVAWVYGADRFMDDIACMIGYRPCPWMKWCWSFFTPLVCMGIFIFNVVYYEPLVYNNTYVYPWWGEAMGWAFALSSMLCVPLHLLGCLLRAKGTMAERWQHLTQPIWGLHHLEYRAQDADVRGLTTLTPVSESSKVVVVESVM

[2] = target: T1, human creatine transporter (hCRT, SLC6A8); test: cryo-EM structure; format: binding; remark: listed apart in the source

## N=C(N)NCCC(=O)O [RGX202]
[1]
  Kd: 3.39 µM

## CN(CC(=O)O)C(=N)N [creatine]
[2]
  Kd: 3.2 µM
